Assay results: ChEMBL document CHEMBL5214913, “Cysteine proteases as potential targets for anti-trypanosomatid drug discovery” (Bioorg Med Chem, 2021)
Where a SMILES comes first, the peptide text is derived from it. The star is where a group is joined. Cbz = O=C(OCc1ccccc1)*

What was measured:
[1] = test system: Leishmania amazonensis; assay: Antileishmanial activity against Leishmania amazonensis promastigotes assessed as reduction in parasite survival measured after 48 hrs by Neubauer counting chamber based analysis; format: functional; conditions: read-out: LD50 (the source's name)
[2] = test system: Trypanosoma cruzi; assay: Antitrypanosomal activity against Trypanosoma cruzi Dm28c epimastigotes assessed as reduction in parasite viability incubated for 48 hrs by trypan blue staining based Neubauer counting chamber analysis; format: functional, organism-based
[3] = test system: Trypanosoma cruzi; assay: Antitrypanosomal activity against bloodstream Trypanosoma cruzi Y strain trypomastigote assessed as reduction in parasite viability incubated for 24 hrs by Neubauer chamber based analysis; format: functional, organism-based
[4] = test system: Trypanosoma cruzi; assay: Antiparasitic activity against Trypanosoma cruzi DM28c epimastigotes harboring TcMCA3 assessed reduction in parasite viability incubated for 72 hrs by MTT assay; format: functional, organism-based

Compound | LC50 [1] [µM] | IC50 [2] [µM] | IC50 [3] [µM] | IC50 [4] [µM]
CC(C)[C@H](NC(=O)OCc1ccccc1)C(=O)N[C@H](C=O)Cc1ccccc1 (Cbz-Val-Phe-aldehyde) | 23.3 | 31.7 | 20.4 | –
C=CCc1cccc(/C=N/NC(=O)CN2CCN(Cc3ccccc3)CC2)c1O [PAC-1] | – | – | – | 14
